Reference: US7582627B2, “3-aminoquinazolin-2,4-dione antibacterial agents” (Warner-Lambert Company, priority 2000, dated 2009)
Counter-ions that a name gives are not always drawn.

First: Cc1c(N2CCCC(CN)C2)c(F)cc2c(=O)n(N)c(=O)n(C3CC3)c12.Cl (stereo not drawn)
Second: COc1c(N2CCCC(CN)C2)c(F)cc2c(=O)n(N)c(=O)n(C3CC3)c12.Cl (stereo not drawn)
The melting point of the first is higher: 219 to 221 °C for the first, 201 °C for the second.

Compared with `Cc1c(N2CC(C(C)N)C3(CC3)C2)c(F)cc2c(=O)n(N)c(=O)n(C3CC3)c12.Cl` (stereo not drawn), `Cc1c(N2CC(C(C)N)C(C)(C)C2)c(F)cc2c(=O)n(N)c(=O)n(C3CC3)c12.Cl` (stereo not drawn) is higher in melting point: 178 to 180 °C for the first, 246 °C for the second.

Compared with `CN[C@@H](C)[C@@H]1CCN(c2cc3c(c(C)c2F)c(=O)n(N)c(=O)n3C2CC2)C1.Cl`, `Cc1c(F)c(N2CC[C@H]([C@@H](C)N)C2)cc2c1c(=O)n(N)c(=O)n2C1CC1.Cl` is higher in melting point: 182 to 185 °C for the first, 245 to 247 °C for the second.

First: CC1(CN)CCN(c2c(F)cc3c(=O)n(N)c(=O)n(C4CC4)c3c2Cl)C1 (stereo not drawn) (as salt: hydrochloride) [Compound 3, 3-Amino-7-[3-(aminomethyl)-3-methylpyrrolidin-1-yl]-8-chloro-1-cyclopropyl-6-fluoro-1H-quinazoline-2,4-dione hydrochloride]
Second: Nn1c(=O)c2cc(F)c(N3CCC4(CCNC4)C3)c(Cl)c2n(C2CC2)c1=O (stereo not drawn) [Compound 62, 3-Amino-8-chloro-1-cyclopropyl-7-(2,7-diazaspiro[4.4]non-2-yl)-6-fluoro-1H-quinazoline-2,4-dione]
The melting point of the first is higher: 166 to 168 °C for the first, 147 to 149 °C for the second.

First: Cl.Cl.NCC1CCCN(c2nc3c(cc2F)c(=O)n(N)c(=O)n3C2CC2)C1 (stereo not drawn)
Second: Cl.NCC1CCN(c2cc3c(cc2F)c(=O)n(N)c(=O)n3C2CC2)C1 (stereo not drawn)
The melting point of the first is lower: 152 to 154 °C for the first, 170 to 172 °C for the second.

Compared with `COc1c(N2C[C@@H](CN)[C@H](F)C2)c(F)cc2c(=O)n(N)c(=O)n(C3CC3)c12.Cl` (relative stereo), `COc1c(N2C[C@@H](CN)[C@@H](F)C2)c(F)cc2c(=O)n(N)c(=O)n(C3CC3)c12.Cl` (relative stereo) is higher in melting point: 144 to 147 °C for the first, 169 to 179 °C for the second.

First: CCN[C@@H](C)[C@@H]1CCN(c2c(F)cc3c(=O)n(N)c(=O)n(C4CC4)c3c2C)C1.Cl
Second: CN[C@@H](C)[C@@H]1CCN(c2c(F)cc3c(=O)n(N)c(=O)n(C4CC4)c3c2C)C1.Cl
The melting point of the first is higher: 210 to 215 °C for the first, 153 to 155 °C for the second.

Compared with `Cc1c(N2CC[C@@H](C(C)(C)N)C2)c(F)cc2c(=O)n(N)c(=O)n(C3CC3)c12.Cl`, `CC(C)(N)[C@@H]1CCN(c2c(F)cc3c(=O)n(N)c(=O)n(C4CC4)c3c2Cl)C1.Cl` is lower in melting point: 200 to 202 °C for the first, 117 to 120 °C for the second.

Compared with `Cl.NC1C2CN(c3nc4c(cc3F)c(=O)n(N)c(=O)n4C3CC3)CC12` (stereo not drawn), `NC1C2CN(c3c(F)cc4c(=O)n(N)c(=O)n(C5CC5)c4c3Cl)CC12` (stereo not drawn) (as salt: hydrochloride) is lower in melting point: 268 to 270 °C for the first, 111 to 114 °C for the second.

First: Cl.NCC1CCN(c2c(Cl)cc3c(=O)n(N)c(=O)n(C4CC4)c3c2Cl)C1 (stereo not drawn)
Second: Cl.NCCC1CCN(c2c(F)cc3c(=O)n(N)c(=O)n(C4CC4)c3c2Cl)C1 (stereo not drawn)
The melting point of the first is lower: 147 to 149 °C for the first, 158 to 160 °C for the second.

First: Cl.Nn1c(=O)c2cc(F)c(N3CCC(CNCC(F)(F)F)C3)c(Cl)c2n(C2CC2)c1=O (stereo not drawn)
Second: CC(C)NCC1CCN(c2c(F)cc3c(=O)n(N)c(=O)n(C4CC4)c3c2Cl)C1.Cl (stereo not drawn)
The melting point of the first is higher: 163 to 164 °C for the first, 125 to 127 °C for the second.

Compared with `COc1c(N2CCC(F)(C(C)N)C2)c(F)cc2c(=O)n(N)c(=O)n(C3CC3)c12.Cl` (stereo not drawn), `COc1c(N2CCC(O)(CN)C2)c(F)cc2c(=O)n(N)c(=O)n(C3CC3)c12.Cl` (stereo not drawn) is higher in melting point: 190 to 192 °C for the first, 202 °C for the second.

First: C[C@@H]1CN(c2c(F)cc3c(=O)n(N)c(=O)n(C4CC4)c3c2Cl)C[C@H]1CN.Cl (relative stereo)
Second: COc1c(N2C[C@@H](C)[C@H](N)C2)c(F)cc2c(=O)n(N)c(=O)n(C3CC3)c12.Cl (relative stereo)
The melting point of the first is higher: 215 to 217 °C for the first, 209 °C for the second.

Compared with `Cl.Nn1c(=O)c2cc(F)c(N3CCC(N)(c4ccccc4)C3)c(Cl)c2n(C2CC2)c1=O` (stereo not drawn), `Cc1c(N2CCC(N)(c3ccccc3)C2)c(F)cc2c(=O)n(N)c(=O)n(C3CC3)c12.Cl` (stereo not drawn) is higher in melting point: 198 to 200 °C for the first, 236 °C for the second.

Compared with `C[C@H](N)[C@@H]1CCN(c2c(F)cc3c(=O)n(N)c(=O)n(C4CC4)c3c2Cl)C1.Cl`, `Cc1c(N2CC[C@H]([C@@H](C)N)C2)c(F)cc2c(=O)n(N)c(=O)n(C3CC3)c12.Cl` [Compound 75] is higher in melting point: 164 to 166 °C for the first, 194 to 196 °C for the second.

First: Cc1c(N2CC(C)C(C(C)N)C2)c(F)cc2c(=O)n(N)c(=O)n(C3CC3)c12.Cl (stereo not drawn)
Second: COC1(C(C)N)CCN(c2c(F)cc3c(=O)n(N)c(=O)n(C4CC4)c3c2C)C1.Cl (stereo not drawn)
The melting point of the first is higher: 240 °C for the first, 190 to 192 °C for the second.

First: Cc1c(N2CCC(C)(N)C2)c(F)cc2c(=O)n(N)c(=O)n(C3CC3)c12.Cl (stereo not drawn)
Second: COCC1(CN)CCN(c2c(F)cc3c(=O)n(N)c(=O)n(C4CC4)c3c2C)C1.Cl (stereo not drawn)
The melting point of the first is higher: 237 to 240 °C for the first, 172 to 177 °C for the second.

First: CC1COc2c(N3CC[C@@H]([C@H](C)N)C3)c(F)cc3c(=O)n(N)c(=O)n1c23.Cl (stereo partly drawn)
Second: CC1COc2c(N3CC[C@H](N)C3)c(F)cc3c(=O)n(N)c(=O)n1c23.Cl (stereo partly drawn)
The melting point of the first is lower: 192 to 194 °C for the first, 202 to 204 °C for the second.

Compared with `CCn1c(=O)n(N)c(=O)c2ccc(N3CC[C@H](N)C3)c(F)c21.Cl`, `COc1cc2c(=O)n(N)c(=O)n(C3CC3)c2c(F)c1N1CCC(N)C1.Cl` (stereo not drawn) is lower in melting point: 248 to 251 °C for the first, 208 to 210 °C for the second.

Compared with `CC(C)n1c(=O)n(N)c(=O)c2cc(F)c(N3CCC(N)C3)c(Cl)c21` (stereo not drawn) (as salt: trifluoroacetate), `CN[C@H]1CCN(c2c(F)cc3c(=O)n(N)c(=O)n(C4CC4)c3c2Cl)C1` (as salt: hydrochloride) [Compound 5, 3-Amino-7-((S)-3-N-methylaminopyrrolidin-1-yl)-8-chloro-1-cyclopropyl-6-fluoro-1H-quinazoline-2,4-dione hydrochloride] is lower in melting point: 151 °C for the first, 118 to 120 °C for the second.

First: COc1c(N2CC[C@H]([C@H](C)N)C2)c(F)cc2c(=O)n(N)c(=O)n(C3CC3)c12.Cl
Second: COc1c(N2CCCC(C(C)N)C2)c(F)cc2c(=O)n(N)c(=O)n(C3CC3)c12.Cl (stereo not drawn)
The melting point of the first is higher: 221 to 223 °C for the first, 198 °C for the second.

First: Nn1c(=O)c2cc(F)c(N3CCC(=NO)C3)c(Cl)c2n(C2CC2)c1=O [Compound 65, 3-Amino-8-chloro-1-cyclopropyl-6-fluoro-7-(3-hydroxyimino-pyrrolidin-1-yl)-1H-quinazoline-2,4-dione]
Second: Cl.Nn1c(=O)c2cc(F)c(N3CCCC3)c(Cl)c2n(C2CC2)c1=O
The melting point of the first is higher: 147 to 149 °C for the first, 96 to 98 °C for the second.

First: Cc1c(N2CCC(CN)C2)c(F)cc2c(=O)n(N)c(=O)n(C3CC3)c12.O=C(O)C(F)(F)F (stereo not drawn)
Second: NC1CCN(c2c(Cl)cc3c(=O)n(N)c(=O)n(C4CC4)c3c2F)C1.O=C(O)C(F)(F)F (stereo not drawn)
The melting point of the first is lower: 82 to 84 °C for the first, 135 to 137 °C for the second.

Compared with `Cc1c(N2CC(CN)C3(CC3)C2)c(F)cc2c(=O)n(N)c(=O)n(C3CC3)c12.Cl` (stereo not drawn), `COc1c(N2CC(CN)C3(CC3)C2)c(F)cc2c(=O)n(N)c(=O)n(C3CC3)c12.Cl` (stereo not drawn) is higher in melting point: 167 °C for the first, 178 °C for the second.

First: Cl.NC[C@@H]1CN(c2nc3c(cc2F)c(=O)n(N)c(=O)n3C2CC2)C[C@H]1C(F)(F)F (relative stereo)
Second: COc1c(N2CCC(CN)C2)c(F)cc2c(=O)n(N)c(=O)n(C3CC3)c12.Cl (stereo not drawn)
The melting point of the first is higher: 214 to 216 °C for the first, 180 to 182 °C for the second.

`CS(=O)(=O)NCC1CCN(c2c(F)cc3c(=O)n(N)c(=O)n(C4CC4)c3c2Cl)C1.Cl` (stereo not drawn) and `CS(=O)(=O)NCC1CCN(c2c(F)cc3c(=O)n(N)c(=O)n(C4CC4)c3c2Cl)C1` (stereo not drawn) [Compound 74, N-[1-(3-Amino-8-chloro-1-cyclopropyl-6-fluoro-2,4-dioxo-1,2,3,4-tetrahydroquinazolin-7-yl)pyrrolidin-3-ylmethyl]methanesulfonamide] fall in the same range of melting point: 109 to 112 °C for the first, 109 to 112 °C for the second.

First: Cc1c(N2CCCC2)c(F)cc2c(=O)n(N)c(=O)n(C3CC3)c12.Cl
Second: COc1c(N2CCC(CN)CC2)c(F)cc2c(=O)n(N)c(=O)n(C3CC3)c12.Cl
The melting point of the first is lower: 178 to 180 °C for the first, 201 °C for the second.

First: COc1c(N2CC3CC3(CN)C2)c(F)cc2c(=O)n(N)c(=O)n(C3CC3)c12.Cl (stereo not drawn)
Second: Cl.N[C@@H]1CN(c2c(F)cc3c(=O)n(N)c(=O)n(C4CC4)c3c2Cl)C[C@H]1c1ccccc1 (relative stereo)
The melting point of the first is higher: 183 to 185 °C for the first, 174 to 175 °C for the second.

With `Cl.Nn1c(=O)c2cc(F)c(C3CCC4CNCC4N3)nc2n(C2CC2)c1=O` (stereo not drawn) the melting point was 200 to 202 °C.

Work on `Cc1c(N2CC3CCCCC3(CN)C2)c(F)cc2c(=O)n(N)c(=O)n(C3CC3)c12.Cl` (stereo not drawn) yielded a melting point greater than 250 °C.
`C[C@H](N)[C@@H]1CCN(c2nc3c(cc2F)c(=O)n(N)c(=O)n3C2CC2)C1.Cl` gave a melting point greater than 260 °C.
Compound `COc1c(N2CC(N)C(OC)C2)c(F)cc2c(=O)n(N)c(=O)n(C3CC3)c12.Cl` (stereo not drawn) has a melting point greater than 250 °C.
In the case of `COc1c(N2CC3C(N)CC3(C)C2)c(F)cc2c(=O)n(N)c(=O)n(C3CC3)c12.Cl` (stereo not drawn), the melting point is reported as greater than 190 °C.
With `COc1c(N2CCC(C(=O)O)C2)c(F)cc2c(=O)n(N)c(=O)n(C3CC3)c12.O=C(O)C(F)(F)F` (stereo not drawn) the melting point was 252 °C (dec.).
For `Cl.N[C@H]1CCN(c2cc3c(cc2F)c(=O)n(N)c(=O)n3C2CC2)C1`, the melting point was greater than 250 °C.
In the case of `N[C@H]1CCN(c2c(F)c(F)c3c(=O)n(N)c(=O)n(C4CC4)c3c2F)C1` (as salt: hydrochloride) [Compound 9, 3-Amino-7-((S)-3-aminopyrrolidin-1-yl)-1-cyclopropyl-5,6,8-trifluoro-1H-quinazoline-2,4-dione hydrochloride], the melting point is reported as 271 °C (dec.).
In the case of `COc1c(N2CCC(C(C)(C)O)C2)c(F)cc2c(=O)n(N)c(=O)n(C3CC3)c12.Cl` (stereo not drawn), the melting point is reported as 134 °C (dec.).
In the case of `COC1CN(c2c(F)cc3c(=O)n(N)c(=O)n(C4CC4)c3c2C)CC1N.Cl` (stereo not drawn), the melting point is reported as greater than 250 °C.
For `COc1c(N2CCC3(CC3N)C2)c(F)cc2c(=O)n(N)c(=O)n(C3CC3)c12.Cl` (stereo not drawn), the melting point was greater than 250 °C.
For `Nc1c(F)c(N2CC[C@H](N)C2)c(F)c2c1c(=O)n(N)c(=O)n2C1CC1` (as salt: hydrochloride) [Compound 11, 7-((S)-3-Aminopyrrolidin-1-yl)-1-cyclopropyl-3,5-diamino-6,8-difluoro-1H-quinazoline-2,4-dione hydrochloride], the melting point was 215 to 218 °C (dec.).
`Cl.N[C@@H]1CN(c2c(F)cc3c(=O)n(N)c(=O)n(C4CC4)c3c2Cl)C[C@H]1c1ccc(O)cc1` (relative stereo) gave a melting point greater than 200 °C.
